Reference: PubChem BioAssay AID2060618 (Molecular Pharmacology Branch, DTP, NCI, 2025)

Tested on: 454973-116-R2-J3-PDC spheroids, percent test/control viability
Test: Anticancer human tumor 454973-116-R2-J3-PDC patient-derived pancreatic carcinoma cell line growth inhibition [CLK]
Settings: spheroids with HUVEC and MSC; for IC50: curve of first compound; for viability, T/C: stronger effect = lower value
In short: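 Patient-derived tumor cells grown as complex spheroids with HUVEC endothelial cells and mesenchymal stem cells, treated with drug combinations. Concentrations descend in half-log steps from near clinical Cmax, or from 10 microM if Cmax unknown.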

[1] = second compound 0.0316 µM, first compound 0.0316 µM
[2] = second compound 0.0316 µM, first compound 0.1 µM
[3] = second compound 0.0316 µM, first compound 0.316 µM
[4] = second compound 0.0316 µM, first compound 1 µM
[5] = second compound 0.0316 µM, first compound 3.16 µM
[6] = second compound 0.0316 µM, first compound 10 µM
[7] = second compound 0.1 µM, first compound 0.0316 µM
[8] = second compound 0.1 µM, first compound 0.1 µM
[9] = second compound 0.1 µM, first compound 0.316 µM
[10] = second compound 0.1 µM, first compound 1 µM
[11] = second compound 0.1 µM, first compound 3.16 µM
[12] = second compound 0.1 µM, first compound 10 µM
[13] = second compound 0.316 µM, first compound 0.0316 µM
[14] = second compound 0.316 µM, first compound 0.1 µM
[15] = second compound 0.316 µM, first compound 0.316 µM
[16] = second compound 0.316 µM, first compound 1 µM
[17] = second compound 0.316 µM, first compound 3.16 µM
[18] = second compound 0.316 µM, first compound 10 µM
[19] = second compound 1 µM, first compound 0.0316 µM
[20] = second compound 1 µM, first compound 0.1 µM
[21] = second compound 1 µM, first compound 0.316 µM
[22] = second compound 1 µM, first compound 1 µM
[23] = second compound 1 µM, first compound 3.16 µM
[24] = second compound 1 µM, first compound 10 µM
[25] = second compound 3.16 µM, first compound 0.0316 µM
[26] = second compound 3.16 µM, first compound 0.1 µM
[27] = second compound 3.16 µM, first compound 0.316 µM
[28] = second compound 3.16 µM, first compound 1 µM
[29] = second compound 3.16 µM, first compound 3.16 µM
[30] = second compound 3.16 µM, first compound 10 µM
[31] = second compound 10 µM, first compound 0.0316 µM
[32] = second compound 10 µM, first compound 0.1 µM
[33] = second compound 10 µM, first compound 0.316 µM
[34] = second compound 10 µM, first compound 1 µM
[35] = second compound 10 µM, first compound 3.16 µM
[36] = second compound 10 µM, first compound 10 µM
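Further: spheroids exposed to compounds for 7 days before readout.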

C=CC(=O)N1CCN(c2nc(=O)n(-c3c(C)ccnc3C(C)C)c3nc(-c4c(O)cccc4F)c(F)cc23)C(C)C1 (stereo unspecified) + CN1CCN(c2cc(C(=O)Nc3cc4cc(-c5cnn(C)c5)ccc4cn3)ccn2)CC1
IC50 (second compound 0.0316 µM): > 10000 nM | IC50 (second compound 0.1 µM): > 10000 nM | IC50 (second compound 0.316 µM): < 31.6 nM | IC50 (second compound 1 µM): < 31.6 nM | IC50 (second compound 3.16 µM): < 31.6 nM | IC50 (second compound 10 µM): < 31.6 nM | viability, T/C [1]: 97% | viability, T/C [2]: 99.5% | viability, T/C [3]: 103% | viability, T/C [4]: 110% | viability, T/C [5]: 110% | viability, T/C [6]: 119% | viability, T/C [7]: 87.6% | viability, T/C [8]: 88.4% | viability, T/C [9]: 92.6% | viability, T/C [10]: 87.1% | viability, T/C [11]: 98.4% | viability, T/C [12]: 54.7% | viability, T/C [13]: 2.25% | viability, T/C [14]: 2.21% | viability, T/C [15]: 6.18% | viability, T/C [16]: 2.73% | viability, T/C [17]: 4.43% | viability, T/C [18]: 2.46% | viability, T/C [19]: 0.13% | viability, T/C [20]: 1.49% | viability, T/C [21]: 1.16% | viability, T/C [22]: 0.14% | viability, T/C [23]: 0.16% | viability, T/C [24]: 1.96% | viability, T/C [25]: 1.3% | viability, T/C [26]: 0.21% | viability, T/C [27]: 4.08% | viability, T/C [28]: 0.17% | viability, T/C [29]: 4.42% | viability, T/C [30]: 1.08% | viability, T/C [31]: 1.96% | viability, T/C [32]: 0.63% | viability, T/C [33]: 0.4% | viability, T/C [34]: 0.69% | viability, T/C [35]: 0.61% | viability, T/C [36]: 0.21%

CC(C)CC(NC(=O)C(Cc1ccccc1)NC(=O)c1cnccn1)B(O)O (stereo unspecified) + CN1CCN(c2cc(C(=O)Nc3cc4cc(-c5cnn(C)c5)ccc4cn3)ccn2)CC1
IC50 (second compound 0.0316 µM): 3.31 nM | IC50 (second compound 0.1 µM): 1.5 nM | IC50 (second compound 0.316 µM): < 0.949 nM | IC50 (second compound 1 µM): < 0.949 nM | IC50 (second compound 3.16 µM): < 0.949 nM | IC50 (second compound 10 µM): < 0.949 nM | viability, T/C (second compound 0.0316 µM, first compound 0.000949 µM): 94.4% | viability, T/C (second compound 0.0316 µM, first compound 0.003 µM): 54.7% | viability, T/C (second compound 0.0316 µM, first compound 0.00949 µM): 0.27% | viability, T/C (second compound 0.0316 µM, first compound 0.03 µM): 0.3% | viability, T/C (second compound 0.0316 µM, first compound 0.0949 µM): 0.17% | viability, T/C (second compound 0.0316 µM, first compound 0.3 µM): 0.14% | viability, T/C (second compound 0.1 µM, first compound 0.000949 µM): 73.7% | viability, T/C (second compound 0.1 µM, first compound 0.003 µM): 14.8% | viability, T/C (second compound 0.1 µM, first compound 0.00949 µM): 0.41% | viability, T/C (second compound 0.1 µM, first compound 0.03 µM): 0.19% | viability, T/C (second compound 0.1 µM, first compound 0.0949 µM): 0.16% | viability, T/C (second compound 0.1 µM, first compound 0.3 µM): 0.14% | viability, T/C (second compound 0.316 µM, first compound 0.000949 µM): 2.21% | viability, T/C (second compound 0.316 µM, first compound 0.003 µM): 0.7% | viability, T/C (second compound 0.316 µM, first compound 0.00949 µM): 1.43% | viability, T/C (second compound 0.316 µM, first compound 0.03 µM): 0.12% | viability, T/C (second compound 0.316 µM, first compound 0.0949 µM): 0.11% | viability, T/C (second compound 0.316 µM, first compound 0.3 µM): 0.09% | viability, T/C (second compound 1 µM, first compound 0.000949 µM): 0.12% | viability, T/C (second compound 1 µM, first compound 0.003 µM): 0.19% | viability, T/C (second compound 1 µM, first compound 0.00949 µM): 0.09% | viability, T/C (second compound 1 µM, first compound 0.03 µM): 0.05% | viability, T/C (second compound 1 µM, first compound 0.0949 µM): 0.07% | viability, T/C (second compound 1 µM, first compound 0.3 µM): 0.07% | viability, T/C (second compound 3.16 µM, first compound 0.000949 µM): 0.16% | viability, T/C (second compound 3.16 µM, first compound 0.003 µM): 1.02% | viability, T/C (second compound 3.16 µM, first compound 0.00949 µM): 0.07% | viability, T/C (second compound 3.16 µM, first compound 0.03 µM): 0.05% | viability, T/C (second compound 3.16 µM, first compound 0.0949 µM): 0.6% | viability, T/C (second compound 3.16 µM, first compound 0.3 µM): 0.79% | viability, T/C (second compound 10 µM, first compound 0.000949 µM): 0.09% | viability, T/C (second compound 10 µM, first compound 0.003 µM): 0.13% | viability, T/C (second compound 10 µM, first compound 0.00949 µM): 0.88% | viability, T/C (second compound 10 µM, first compound 0.03 µM): 0.09% | viability, T/C (second compound 10 µM, first compound 0.0949 µM): 0.16% | viability, T/C (second compound 10 µM, first compound 0.3 µM): 0.17%

CC(=O)O[C@H]1C(=O)[C@@]2(C)[C@H]([C@H](OC(=O)c3ccccc3)[C@]3(O)C[C@H](OC(=O)[C@H](O)[C@@H](NC(=O)c4ccccc4)c4ccccc4)C(C)=C1C3(C)C)[C@]1(OC(C)=O)CO[C@@H]1C[C@@H]2O + CNC(=O)c1ccc(Nc2nc(OC3CCCC3)c3c(-c4ccc5nc(C)oc5c4)c[nH]c3n2)c(OC)c1
IC50 (second compound 0.0316 µM): < 31.6 nM | IC50 (second compound 0.1 µM): < 31.6 nM | IC50 (second compound 0.316 µM): < 31.6 nM | IC50 (second compound 1 µM): < 31.6 nM | IC50 (second compound 3.16 µM): < 31.6 nM | IC50 (second compound 10 µM): < 31.6 nM | viability, T/C [1]: 7.2% | viability, T/C [2]: 10.3% | viability, T/C [3]: 8.05% | viability, T/C [4]: 8.91% | viability, T/C [5]: 7.98% | viability, T/C [6]: 26.6% | viability, T/C [7]: 10.1% | viability, T/C [8]: 8.61% | viability, T/C [9]: 9.22% | viability, T/C [10]: 10.1% | viability, T/C [11]: 14.3% | viability, T/C [12]: 38% | viability, T/C [13]: 33.1% | viability, T/C [14]: 39.2% | viability, T/C [15]: 43.9% | viability, T/C [16]: 48.2% | viability, T/C [17]: 83% | viability, T/C [18]: 110% | viability, T/C [19]: 45.3% | viability, T/C [20]: 50.2% | viability, T/C [21]: 54.3% | viability, T/C [22]: 60.5% | viability, T/C [23]: 88.4% | viability, T/C [24]: 89.6% | viability, T/C [25]: 38.8% | viability, T/C [26]: 46.5% | viability, T/C [27]: 54.1% | viability, T/C [28]: 51.5% | viability, T/C [29]: 74.2% | viability, T/C [30]: 86.5% | viability, T/C [31]: 36.8% | viability, T/C [32]: 43.2% | viability, T/C [33]: 49.7% | viability, T/C [34]: 60.2% | viability, T/C [35]: 77.1% | viability, T/C [36]: 84.3%
